Where two headings read alike, the source gives them in different places.
Key:
Format in all cases: biochemical
MMP13 = target: T1, MMP13 (Homo sapiens, UniProt P45452); experiment: MMP-13 colorimetric inhibition assay (Enzo kit BML-AK412)
T1 construct: purchased Enzo Life Sciences, Inc. BML-AK412
Procedure, shortened: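 Thiopeptide chromogenic substrate (Ac-PLG-[2-mercapto-4-methylpentanoyl]-LG-OC2H5); MMP-13 hydrolysis of the thioester yields a thiol that reacts with DTNB, read at 415 nm. IC50 values (nM) derived from inhibition curves of normalized data.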

MMP2 = target: T2, MMP2 (Homo sapiens, UniProt P08253); experiment: MMP-2 colorimetric inhibition assay (Enzo kit BML-AK408)
T2 sequence (P08253 110-660): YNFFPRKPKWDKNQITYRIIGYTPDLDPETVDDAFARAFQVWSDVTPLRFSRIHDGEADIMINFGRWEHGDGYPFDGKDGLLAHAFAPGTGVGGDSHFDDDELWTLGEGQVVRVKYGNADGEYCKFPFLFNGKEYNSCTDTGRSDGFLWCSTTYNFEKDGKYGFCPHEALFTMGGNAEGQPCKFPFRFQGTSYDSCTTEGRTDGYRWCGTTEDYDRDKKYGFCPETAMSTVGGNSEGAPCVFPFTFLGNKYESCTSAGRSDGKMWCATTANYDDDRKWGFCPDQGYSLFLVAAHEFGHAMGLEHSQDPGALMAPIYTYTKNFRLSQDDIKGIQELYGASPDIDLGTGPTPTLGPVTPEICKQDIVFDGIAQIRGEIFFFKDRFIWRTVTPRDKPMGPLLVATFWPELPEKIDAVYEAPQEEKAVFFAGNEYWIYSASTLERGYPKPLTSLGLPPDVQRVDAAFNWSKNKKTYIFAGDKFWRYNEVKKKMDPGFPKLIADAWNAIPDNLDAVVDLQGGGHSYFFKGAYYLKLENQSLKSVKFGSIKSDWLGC
Procedure, shortened: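 Cleavage of the thiopeptide Ac-PLG-[2-mercapto-4-methylpentanoyl]-LG-OC2H5 releases a sulfhydryl that reacts with DTNB, read at 415 nm per the kit protocol. IC50 values (nM) come from inhibition curves of normalized data.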

MMP9 = MMP9 (Homo sapiens, UniProt P14780); experiment: MMP-9 colorimetric inhibition assay (Enzo kit BML-AK410)
MMP9, sequence (P14780 94-707): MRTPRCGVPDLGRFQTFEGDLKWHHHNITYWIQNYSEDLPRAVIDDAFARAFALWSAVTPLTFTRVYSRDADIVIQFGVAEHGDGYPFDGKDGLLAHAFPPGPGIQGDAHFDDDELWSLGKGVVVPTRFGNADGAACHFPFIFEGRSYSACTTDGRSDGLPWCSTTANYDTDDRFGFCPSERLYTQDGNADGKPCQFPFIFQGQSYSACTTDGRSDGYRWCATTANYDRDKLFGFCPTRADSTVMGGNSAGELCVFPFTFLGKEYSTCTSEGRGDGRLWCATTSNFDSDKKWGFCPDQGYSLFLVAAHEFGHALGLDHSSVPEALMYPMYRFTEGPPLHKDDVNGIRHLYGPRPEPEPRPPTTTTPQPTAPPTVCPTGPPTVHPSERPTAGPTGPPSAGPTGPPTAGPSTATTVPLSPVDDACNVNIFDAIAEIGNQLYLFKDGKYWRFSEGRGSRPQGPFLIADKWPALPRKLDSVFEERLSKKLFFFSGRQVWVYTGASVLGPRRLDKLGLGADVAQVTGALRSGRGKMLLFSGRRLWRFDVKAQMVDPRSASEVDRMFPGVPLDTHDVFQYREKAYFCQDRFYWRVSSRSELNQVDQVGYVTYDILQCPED
Procedure, shortened: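 Colorimetric thioester-substrate assay: hydrolysis of Ac-PLG-[2-mercapto-4-methylpentanoyl]-LG-OC2H5 frees a thiol that reacts with DTNB, read at 415 nm. Run per kit protocol. IC50 (nM) taken from inhibition curves of normalized values.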

ADAM17 (TACE) = ADAM17 (TACE) (Homo sapiens, UniProt P78536); experiment: TACE fluorometric inhibition assay (Enzo kit BML-AK310)
ADAM17 (TACE), sequence (P78536 215-477 limits assumed): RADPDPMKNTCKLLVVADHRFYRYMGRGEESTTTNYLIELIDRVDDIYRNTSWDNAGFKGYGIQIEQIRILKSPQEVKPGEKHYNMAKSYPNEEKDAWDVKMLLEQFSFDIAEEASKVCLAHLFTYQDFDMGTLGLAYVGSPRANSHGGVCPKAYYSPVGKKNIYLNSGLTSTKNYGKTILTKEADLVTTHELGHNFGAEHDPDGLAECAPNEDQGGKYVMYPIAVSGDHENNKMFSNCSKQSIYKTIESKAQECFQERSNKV
Procedure, shortened: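 Kit-based TACE assay run per manufacturer's protocol, using quenched fluorogenic peptide Mca-PLAQAV-Dpa-RSSSR-NH2 whose cleavage raises Mca fluorescence. Signal read at ex/em 320/420 nm; IC50 (nM) derived from inhibition curves of normalized values.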

MMP1 = target: T3, MMP1 (Homo sapiens, UniProt P03956); experiment: MMP-1 colorimetric inhibition assay (Enzo kit BML-AK404)
T3 sequence (P03956 100-269 limits assumed): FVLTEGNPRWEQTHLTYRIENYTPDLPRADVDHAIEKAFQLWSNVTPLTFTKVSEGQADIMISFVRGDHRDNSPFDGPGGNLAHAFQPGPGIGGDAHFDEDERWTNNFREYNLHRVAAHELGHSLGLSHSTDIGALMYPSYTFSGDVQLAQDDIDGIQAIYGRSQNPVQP
Procedure, shortened: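 Colorimetric kit run per manufacturer protocol. MMP-1 cleaves a thiopeptide substrate (Ac-PLG-[2-mercapto-4-methylpentanoyl]-LG-OC2H5); released thiol reacts with DTNB, monitored at 415 nm. IC50 (nM) from inhibition curves of normalized values.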

ADAM10 = target: T4, ADAM10 (Homo sapiens, UniProt O14672); experiment: SensoLyte 520 ADAM10 fluorometric activity assay (AnaSpec AS-72226)
T4 construct: purchased AnaSpec, Inc. AS-72226
T4 sequence (O14672 214-748): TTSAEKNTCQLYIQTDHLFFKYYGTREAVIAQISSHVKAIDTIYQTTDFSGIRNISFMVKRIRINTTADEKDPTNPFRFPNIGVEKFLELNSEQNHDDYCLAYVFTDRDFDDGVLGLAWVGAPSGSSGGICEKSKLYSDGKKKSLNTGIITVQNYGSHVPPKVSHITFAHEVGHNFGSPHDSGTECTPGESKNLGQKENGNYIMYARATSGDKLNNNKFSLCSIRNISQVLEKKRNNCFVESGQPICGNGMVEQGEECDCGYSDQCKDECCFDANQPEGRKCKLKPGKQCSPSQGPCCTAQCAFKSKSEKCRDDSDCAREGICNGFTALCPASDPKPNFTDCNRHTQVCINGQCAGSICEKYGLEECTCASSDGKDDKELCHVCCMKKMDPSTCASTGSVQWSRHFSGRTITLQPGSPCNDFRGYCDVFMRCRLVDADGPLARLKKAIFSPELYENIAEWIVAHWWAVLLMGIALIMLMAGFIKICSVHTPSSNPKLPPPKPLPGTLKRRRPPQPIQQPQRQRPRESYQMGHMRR
Procedure, shortened: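 ADAM10 activity was read by cleavage of a FRET peptide substrate (5-FAM/QXL 520), run per the kit protocol, with fluorescence at 495/520 nm. IC50 values (nM) came from inhibition curves of normalized data.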

[1] = thiopeptide substrate, absorbance 415 nm, read-out: MMP 13 IC50 class
[2] = thiopeptide substrate, absorbance 415 nm, read-out: MMP 2 IC50 class
[3] = thiopeptide substrate, absorbance 415 nm, read-out: MMP 9 IC50 class
[4] = quenched fluorogenic peptide, ex/em 320/420 nm, read-out: TACE IC50 class
[5] = thiopeptide substrate, absorbance 415 nm, read-out: MMP 1 IC50 class
[6] = FRET peptide substrate, ex/em 495/520 nm, read-out: ADAM 10 IC50 class

SMILES	IC50 (MMP13; [1])	IC50 (MMP2; [2])	IC50 (MMP9; [3])	IC50 (ADAM17 (TACE); [4])	IC50 (MMP1; [5])	IC50 (ADAM10; [6])	IC50 (MMP13)	IC50 (MMP2)	IC50 (MMP9)	IC50 (ADAM17 (TACE))	IC50 (MMP1)	IC50 (ADAM10)
CC(=O)N1[C@@H]2CC[C@H]1[C@H](C(=O)NO)N(S(=O)(=O)c1ccc(Oc3ccc(OC(F)(F)F)cc3)nc1)C2 [Example 54, (1S,2R,5R)-8-acetyl-N-hydroxy-3-((6-(4-(trifluoromethoxy)-phenoxy)pyridin-3-yl)sulfonyl)-3,8-diazabicyclo[3.2.1]-octane-2-carboxamide]	< 0.05 µM	< 0.05 µM	< 0.05 µM	1 to 10 µM	1 to 10 µM	> 10 µM	–	–	–	–	–	–
CCC(=O)N1[C@@H]2CC[C@H]1[C@H](C(=O)NO)N(S(=O)(=O)c1ccc(Oc3ccc(OC(F)(F)F)cc3)nc1)C2 [Example 55, (1S,2R,5R)-N-hydroxy-8-propionyl-3-((6-(4-(trifluoromethoxy)-phenoxy)pyridin-3-yl)sulfonyl)-3,8-diazabicyclo[3.2.1]-octane-2-carboxamide]	< 0.05 µM	< 0.05 µM	< 0.05 µM	1 to 10 µM	1 to 10 µM	> 10 µM	–	–	–	–	–	–
CC(C)C(=O)N1[C@@H]2CC[C@H]1[C@H](C(=O)NO)N(S(=O)(=O)c1ccc(Oc3ccc(OC(F)(F)F)cc3)nc1)C2 [Example 56, (1S,2R,5R)-N-hydroxy-8-isobutyry1-3-((6-(4-(trifluoro-methoxy)phenoxy)-pyridin-3-yl)-sulfonyl)-3,8-diazabicyclo-[3.2.1]octane-2-carboxamide]	< 0.05 µM	< 0.05 µM	< 0.05 µM	1 to 10 µM	> 10 µM	> 10 µM	–	–	–	–	–	–
CC(C)(C)C(=O)N1[C@@H]2CC[C@H]1[C@H](C(=O)NO)N(S(=O)(=O)c1ccc(Oc3ccc(OC(F)(F)F)cc3)nc1)C2 [Example 57, (1S,2R,5R)-N-hydroxy-8-pivaloyl-3-((6-(4-(trifluoro-methoxy)phenoxy)-pyridin-3-yl)-sulfonyl)-3,8-diazabicyclo-[3.2.1]octane-2-carboxamide]	< 0.05 µM	< 0.05 µM	< 0.05 µM	1 to 10 µM	1 to 10 µM	> 10 µM	–	–	–	–	–	–
CC(=O)N1[C@@H]2CC[C@H]1[C@H](C(=O)NO)N(S(=O)(=O)c1ccc(Oc3ccc(OC(C)C)cc3)nc1)C2 [Example 58, (1S,2R,5R)-8-acetyl-N-hydroxy-3-((6-(4-isopropoxyphenoxy)-pyridin-3-yl)-sulfonyl)-3,8-diazabicyclo-[3.2.1]octane-2-carboxamide]	< 0.05 µM	< 0.05 µM	< 0.05 µM	> 10 µM	1 to 10 µM	> 10 µM	–	–	–	–	–	–
CCC(=O)N1[C@@H]2CC[C@H]1[C@H](C(=O)NO)N(S(=O)(=O)c1ccc(Oc3ccc(OC(C)C)cc3)nc1)C2 [Example 59, (1S,2R,5R)-N-hydroxy-3-((6-(4-isopropoxyphenoxy)pyridin-3-yl)-sulfonyl)-8-propionyl-3,8-diaza-bicyclo[3.2.1]octane-2-carboxamide]	< 0.05 µM	< 0.05 µM	< 0.05 µM	> 10 µM	1 to 10 µM	> 10 µM	–	–	–	–	–	–
CC(=O)N1[C@@H]2CC[C@H]1[C@H](C(=O)NO)N(S(=O)(=O)c1ccc(Oc3ccc(OCC(F)(F)F)cc3)nc1)C2 [Example 62, (1S,2R,5R)-8-acetyl-N-hydroxy-3-((6-(4-(2,2,2-trifluoro-ethoxy)phenoxy)-pyridin-3-yl)-sulfonyl)-3,8-diazabicyclo[3.2.1]-octane-2-carboxamide]	< 0.05 µM	< 0.05 µM	< 0.05 µM	> 10 µM	1 to 10 µM	> 10 µM	–	–	–	–	–	–
COc1ccc(Oc2ccc(S(=O)(=O)N3C[C@H]4CC[C@@H]([C@@H]3C(=O)NO)N4C(C)=O)cn2)cc1F [Example 63, (1S,2R,5R)-8-acetyl-3-((6-(3-fluoro-4-methoxyphenoxy)-pyridin-3-yl)-sulfonyl)-N-hydroxy-3,8-diazabicyclo[3.2.1]-octane-2-carboxamide]	< 0.05 µM	< 0.05 µM	< 0.05 µM	1 to 10 µM	1 to 10 µM	1 to 10 µM	–	–	–	–	–	–
CCOC(=O)N1[C@@H]2CC[C@H]1[C@H](C(=O)NO)N(S(=O)(=O)c1ccc(Oc3ccc(F)cc3)nc1)C2 [Example 65, ethyl (1S,2R,5R)-3-((6-(4-fluorophenoxy)pyridin-3-yl)sulfonyl)-2-(hydroxycarbamoyl)-3,8-diazabicyclo[3.2.1]octane-8-carboxylate]	< 0.05 µM	< 0.05 µM	< 0.05 µM	1 to 10 µM	0.05 to 1 µM	> 10 µM	–	–	–	–	–	–
COC(=O)N1[C@@H]2CC[C@H]1[C@H](C(=O)NO)N(S(=O)(=O)c1ccc(Oc3ccc(F)cc3)nc1)C2 [Example 66, methyl (1S,2R,5R)-3-((6-(4-fluoro-phenoxy)pyridin-3-yl)sulfonyl)-2-(hydroxycarbamoyl)-3,8-diazabicyclo-[3.2.1]octane-8-carboxylate]	< 0.05 µM	< 0.05 µM	< 0.05 µM	1 to 10 µM	1 to 10 µM	> 10 µM	–	–	–	–	–	–
CC(C)OC(=O)N1[C@@H]2CC[C@H]1[C@H](C(=O)NO)N(S(=O)(=O)c1ccc(Oc3ccc(F)cc3)nc1)C2 [Example 67, isopropyl (1S,2R,5R)-3-((6-(4-fluorophenoxy)-pyridin-3-yl)-sulfonyl)-2-(hydroxycarbamoyl)-3,8-diazabicyclo-[3.2.1]octane-8-carboxylate]	< 0.05 µM	< 0.05 µM	< 0.05 µM	1 to 10 µM	0.05 to 1 µM	> 10 µM	–	–	–	–	–	–
O=C(NO)[C@H]1[C@@H]2CC[C@H](CN1S(=O)(=O)c1ccc(Oc3ccc(OC(F)(F)F)cc3)nc1)N2C(=O)N1CCOCC1 [Example 70, (1S,2R,5R)-N-hydroxy-8-(morpholine-4-carbonyl)-3-((6-(4-(trifluoromethoxy)-phenoxy)pyridin-3-yl)sulfonyl)-3,8-diazabicyclo[3.2.1]-octane-2-carboxamide]	< 0.05 µM	< 0.05 µM	< 0.05 µM	1 to 10 µM	> 10 µM	> 10 µM	–	–	–	–	–	–
O=C(NO)[C@H]1[C@@H]2CC[C@H](CN1S(=O)(=O)c1ccc(Oc3ccc(OCC(F)(F)F)cc3)nc1)N2C(=O)N1CCOCC1 [Example 72, (1S,2R,5R)-N-hydroxy-8-(morpholine-4-carbonyl)-3-((6-(4-(2,2,2-trifluoroethoxy)-phenoxy)pyridin-3-yl)sulfonyl)-3,8-diazabicyclo[3.2.1]-octane-2-carboxamide]	–	–	–	–	–	–	< 0.05 µM	< 0.05 µM	< 0.05 µM	> 10 µM	1 to 10 µM	> 10 µM

Source: patent US20250215010A1, “DIAZABICYCLOOCTANE DERIVATIVES USEFUL AS MATRIX METALLOPROTEINASE INHIBITORS” (VASA THERAPEUTICS SPOLKA Z OGRANICZONA ODPOWIEDZIALNOSCIA, priority 2022, published 2025)
